Experimental data as given in patent publication US10526347B2, “3-(3H-imidazo[4,5-B]pyridin-2-yl)-1H-pyrazolo[3,4-B]pyridine and therapeutic uses thereof” (Samumed, LLC, priority 2014, dated 2020).

What was measured:
Assay type in all cases: cell-based
[1] = system: Wnt activity (SW480 colon carcinoma cells stably expressing the Sp5-Luc reporter gene); test: Sp5-Luc reporter gene screening assay for Wnt activity; conditions: Homo sapiens
In short: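 The SW480 cells carry a lentiviral luciferase reporter driven by a Sp5 promoter with eight TCF/LEF sites. They were plated at 10,000 cells/well in 10% FCS overnight, then pinned with 50 nl of 3-fold dilutions (10 mM top source concentration) into 50 μl.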

[2] = system: primary human mesenchymal stem cells (hMSCs); test: Chondrogenesis induction in primary human mesenchymal stem cells (chondrogenic nodules, Rhodamine B / Nile Red); conditions: 6 days; for EC (100% of TGF-beta3 activity): Homo sapiens, Mesenchymal stem cells, 144 h, concentration required to induce chondrogenesis equivalent to TGF-β3 10 ng/mL, read-out: Conc (nM) of 100% TGF-β3 activity
Description: The above synthesized compounds were screened using primary human mesenchymal stem cells (hMSCs) to determine their ability to induce chondrogenesis (process by which cartilage is developed).
Primary human mesenchymal stem cells (hMSCs) were purchased from Lonza (Walkersville, Md.) and expanded in Mesenchymal Stem Cell Growth Media (Lonza). Cells between passage 3 and 6 were used for the experiments.
Each compound was dissolved in DMSO as a 10 mM stock and used to prepare compound source plates. Serial dilution (1:3, 6-point dose-response curves from 2700 nM to 10 nM) and compound transfer was performed using the ECHO 550 (Labcyte, Sunnyvale, Calif.) into 96-well clear bottom assay plates (Greiner Bio-One) with appropriate DMSO backfill for a final DMSO concentration of 0.03%. hMSCs were plated at 20,000 cells/well in 250 μL/well Incomplete Chondrogenic Induction Medium (Lonza; DMEM, dexamethasone, ascorbate, insulin-transferrin-selenium [ITS supplement], gentamycin-amphotericin [GA-1000], sodium pyruvate, proline and L-glutamine). TGF-β3 (10 ng/mL) was used as a positive control for differentiation while negative control wells were treated with 75 nL DMSO for normalization and calculating EC50 values. Cells were incubated at 37° C. and 5% CO2 for 6 days. To image chondrogenic nodules, the cells were fixed using 4% formaldehyde (Electron Microscopy Sciences), and stained with 2 μg/mL Rhodamine B (Sigma-Aldrich) and 20 μM Nile Red (Sigma-Aldrich) [Johnson K., et. al, A Stem Cell-Based Approach to Cartilage Repair, Science, (2012), 336(6082). 717-721]. The nodules imaged (4 images per well at 4× magnification) by excitation at 531 nm and emission at 625 nm and quantified using the CellInsight CX5 (Thermo Scientific). Number of nodules in each well was normalized to the average of 3 DMSO treated wells on the same plate using Excel (Microsoft Inc.). The normalized averages (fold change over DMSO) of 3 replicate wells for each compound concentration were calculated. Due to solubility limitations of some of the compounds, curve fitting was incomplete leading to inaccurate EC50 determinations.
Using TGF-β3 as a positive control, the concentration of test compounds required to induce equivalent levels of chondrogenesis is reported. In addition, the maximum activity of each compound and the respective dose that each compound reached maximum chondrogenesis activity is reported.

[3] = system: primary human fibroblasts derived from IPF patients (LL29 cells); test: Inhibition of the fibrotic process in TGF-β1 treated IPF patient fibroblasts (αSMA staining); conditions: Fibroblast, 96 h, LL29 cells treated with TGF-β1 (20 ng/mL), 4 days, read-out: Inhibition of fibrosis EC50
In short: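 LL29 IPF lung fibroblasts in F12 with 1% FBS, compound (11-point, 10 μM to 1.87 nM, 0.1% DMSO) plus TGF-β1 20 ng/mL for 4 days at 37° C. αSMA-positive % of SYTOX-negative cells by immunofluorescence imaging, normalized to TGF-β1 wells; EC50 from non-linear regression of triplicates.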

Row | SMILES | IC50 [1] [nM] | EC (100% of TGF-beta3 activity) [2] [nM] | EC50 [3] [nM] | Max. Activity as % TGF-β3 activity ([2]; positive control TGF-β3 10 ng/mL, nodule number normalized to DMSO) [%]
1 | CC(C)Nc1cncc(-c2cnc3[nH]nc(-c4nc5c(-c6cccnc6)ccnc5[nH]4)c3c2)c1 [Compound 75, N-Isopropyl-5-(3-(7-(pyridin-3-yl)-3H-imidazo[4,5-b]pyridin-2-yl)-1H-pyrazolo[3,4-b]pyridin-5-yl)pyridin-3-amine] | 45.4 | 58.5 | – | –
2 | CCCCC(=O)Nc1cncc(-c2cnc3[nH]nc(-c4nc5c(-c6cc(F)cc(NCCN(C)C)c6)ccnc5[nH]4)c3c2)c1 [Compound 432, N-(5-(3-(7-(3-((2-(Dimethylamino)ethyl)amino)-5-fluorphenyl)-3H-imidazo[4,5-b]pyridin-2-yl)-1H-pyrazolo[3,4-b]pyridin-5-yl)pyridin-3-yl)pentanamide] | 21.7 | 57 | – | –
3 | COc1cncc(-c2cnc3[nH]nc(-c4nc5c(-c6cccc(F)c6)ccnc5[nH]4)c3c2)c1 [Compound 920, 3-(7-(3-Fluorophenyl)-3H-imidazo[4,5-b]pyridin-2-yl)-5-(5-methoxypyridin-3-yl)-1H-pyrazolo[3,4-b]pyridine] | 1050 | – | ≤ 9 | –
4 | Oc1cncc(-c2cnc3[nH]nc(-c4nc5c(-c6cccc(F)c6)ccnc5[nH]4)c3c2)c1 [Compound 921, 5-(3-(7-(3-Fluorophenyl)-3H-imidazo[4,5-b]pyridin-2-yl)-1H-pyrazolo[3,4-b]pyridin-5-yl)pyridin-3-ol] | 27 | – | 164 | –
5 | Fc1cccc(-c2ccnc3[nH]c(-c4n[nH]c5ncc(-c6ccncc6)cc45)nc23)c1 [Compound 924, 3-(7-(3-Fluorophenyl)-3H-imidazo[4,5-b]pyridin-2-yl)-5-(pyridin-4-yl)-1H-pyrazolo[3,4-b]pyridine] | > 10000 | – | ≥ 9990 | –
6 | Fc1cccc(-c2ccnc3[nH]c(-c4n[nH]c5ncc(-c6ccccn6)cc45)nc23)c1 [Compound 925, 3-(7-(3-Fluorophenyl)-3H-imidazo[4,5-b]pyridin-2-yl)-5-(pyridin-2-yl)-1H-pyrazolo[3,4-b]pyridine] | > 10000 | – | ≥ 9990 | –
7 | Fc1cccc(-c2ccnc3[nH]c(-c4n[nH]c5ncc(-c6cnccn6)cc45)nc23)c1 [Compound 926, 3-(7-(3-Fluorophenyl)-3H-imidazo[4,5-b]pyridin-2-yl)-5-(pyrazin-2-yl)-1H-pyrazolo[3,4-b]pyridine] | > 10000 | – | 13 | –
8 | CN(C)CC(=O)Nc1cncc(-c2cnc3[nH]nc(-c4nc5c(-c6cccc(F)c6)ccnc5[nH]4)c3c2)c1 [Compound 1409, 2-(Dimethylamino)-N-(5-(3-(7-(3-fluorophenyl)-3H-imidazo[4,5-b]pyridin-2-yl)-1H-pyrazolo[3,4-b]pyridin-5-yl)pyridin-3-yl)acetamide] | 3990 | – | ≤ 9 | –

Now those with a lower IC50 [1], led by results:

Row | IC50 [1] [nM] | SMILES | EC (100% of TGF-beta3 activity) [2] [nM] | EC50 [3] [nM] | Max. Activity as % TGF-β3 activity ([2]; positive control TGF-β3 10 ng/mL, nodule number normalized to DMSO) [%]
9 | 11.5 | O=C(Nc1cncc(-c2cnc3[nH]nc(-c4nc5c(-c6ccc(F)cc6)ccnc5[nH]4)c3c2)c1)C1CCC1 [Compound 38, N-(5-(3-(7-(4-Fluorophenyl)-3H-imidazo[4,5-b]pyridin-2-yl)-1H-pyrazolo[3,4-b]pyridin-5-yl)pyridin-3-yl)cyclobutanecarboxamide] | 48.6 | 118 | –
10 | 8.3 | Cc1cn(-c2ccnc3[nH]c(-c4n[nH]c5ncc(-c6cncc(NC(=O)CC(C)C)c6)cc45)nc23)cn1 [Compound 160, 3-Methyl-N-(5-(3-(7-(4-methyl-1H-imidazol-1-yl)-3H-imidazo[4,5-b]pyridin-2-yl)-1H-pyrazolo[3,4-b]pyridin-5-yl)pyridin-3-yl)butanamide] | 26.8 | – | –
11 | 3.7 | Nc1cncc(-c2cnc3[nH]nc(-c4nc5c(-c6ccccc6F)ccnc5[nH]4)c3c2)c1 [Compound 45, 5-(3-(7-(2-Fluorophenyl)-3H-imidazo[4,5-b]pyridin-2-yl)-1H-pyrazolo [3,4-b]pyridin-5-yl)pyridin-3-amine] | 59.9 | ≤ 9 | 300
